# Experimental data as given in publication PMC12951562, “SH2scan: Mapping SH2 Domain-Ligand Binding Selectivity for Inhibitors and Degraders” (Journal of Medicinal Chemistry, 2026).
# “And” between values parts separate entries of the source, which are not always exact repeats. Identical values can stand only once. Like-named read-outs stand apart in the source and are kept apart here.
# Tests used:
# Test in all cases: biochemical
# Assay type in all cases: binding
# SLAP2 = molecular target: T1, SLAP2 (Homo sapiens, UniProt Q9H6Q3); conditions: read-out: percent of DMSO vehicle control
# T1 construct: made in house; host or cells: HEK293 (transient transfection), unpurified extract
# T1 sequence (Q9H6Q3 1-261): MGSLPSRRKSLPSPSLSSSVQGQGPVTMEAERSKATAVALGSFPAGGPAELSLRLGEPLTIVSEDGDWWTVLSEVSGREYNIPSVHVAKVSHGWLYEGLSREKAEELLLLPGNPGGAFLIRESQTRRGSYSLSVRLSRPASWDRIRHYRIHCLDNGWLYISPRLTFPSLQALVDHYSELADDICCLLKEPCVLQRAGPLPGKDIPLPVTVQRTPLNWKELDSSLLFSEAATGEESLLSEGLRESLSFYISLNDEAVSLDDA
# BLK = molecular target: T2, BLK (Homo sapiens, UniProt P51451); conditions: read-out: percent of DMSO vehicle control
# T2 construct: the DNA-tagged SH2 domain concentrations used in this study were <0.1 nM; made in house; host or cells: HEK293 (transient transfection; unpurified extract)
# PLCG2(SH2dom.C-term.) = molecular target: T3, PLCG2(SH2dom.C-term.) (Homo sapiens, UniProt P16885); conditions: for remaining activity at 10 µM: read-out: percent of DMSO vehicle control
# T3 construct: SH2dom.C-term. denotes SH2 domain closest to C-terminus of protein; made in house; host or cells: HEK293 (transient transfection, unpurified extract)
# T3 sequence (P16885 646-735 limits assumed): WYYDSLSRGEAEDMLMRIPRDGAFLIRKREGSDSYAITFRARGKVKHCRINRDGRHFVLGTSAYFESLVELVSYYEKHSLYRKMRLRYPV
# PTPN6(SH2dom.N-term.) = molecular target: T4, PTPN6(SH2dom.N-term.) (Homo sapiens, UniProt P29350); conditions: for remaining activity at 10 µM: read-out: percent of DMSO vehicle control
# T4 construct: SH2dom.N-term. denotes SH2 domain closest to N-terminus of protein; made in house; host or cells: HEK293 (transient transfection, unpurified extract)
# T4 sequence (P29350 4-100 limits assumed): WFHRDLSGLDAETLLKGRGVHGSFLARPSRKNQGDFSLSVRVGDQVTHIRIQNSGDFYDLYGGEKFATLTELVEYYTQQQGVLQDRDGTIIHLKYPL
# PIK3R2(SH2dom.N-term.) = molecular target: T5, PIK3R2(SH2dom.N-term.) (Homo sapiens, UniProt O00459); conditions: read-out: percent of DMSO vehicle control
# T5 construct: SH2dom.N-term. denotes SH2 domain closest to N-terminus of protein; made in house; host or cells: HEK293 (transient transfection, unpurified extract)
# VAV3 = molecular target: T6, VAV3 (Homo sapiens, UniProt Q9UKW4); conditions: read-out: percent of DMSO vehicle control; for remaining activity at 10 µM: primary screen
# T6 construct: made in house; host or cells: HEK293 (transient transfection), unpurified extract
# T6 sequence (Q9UKW4 1-847): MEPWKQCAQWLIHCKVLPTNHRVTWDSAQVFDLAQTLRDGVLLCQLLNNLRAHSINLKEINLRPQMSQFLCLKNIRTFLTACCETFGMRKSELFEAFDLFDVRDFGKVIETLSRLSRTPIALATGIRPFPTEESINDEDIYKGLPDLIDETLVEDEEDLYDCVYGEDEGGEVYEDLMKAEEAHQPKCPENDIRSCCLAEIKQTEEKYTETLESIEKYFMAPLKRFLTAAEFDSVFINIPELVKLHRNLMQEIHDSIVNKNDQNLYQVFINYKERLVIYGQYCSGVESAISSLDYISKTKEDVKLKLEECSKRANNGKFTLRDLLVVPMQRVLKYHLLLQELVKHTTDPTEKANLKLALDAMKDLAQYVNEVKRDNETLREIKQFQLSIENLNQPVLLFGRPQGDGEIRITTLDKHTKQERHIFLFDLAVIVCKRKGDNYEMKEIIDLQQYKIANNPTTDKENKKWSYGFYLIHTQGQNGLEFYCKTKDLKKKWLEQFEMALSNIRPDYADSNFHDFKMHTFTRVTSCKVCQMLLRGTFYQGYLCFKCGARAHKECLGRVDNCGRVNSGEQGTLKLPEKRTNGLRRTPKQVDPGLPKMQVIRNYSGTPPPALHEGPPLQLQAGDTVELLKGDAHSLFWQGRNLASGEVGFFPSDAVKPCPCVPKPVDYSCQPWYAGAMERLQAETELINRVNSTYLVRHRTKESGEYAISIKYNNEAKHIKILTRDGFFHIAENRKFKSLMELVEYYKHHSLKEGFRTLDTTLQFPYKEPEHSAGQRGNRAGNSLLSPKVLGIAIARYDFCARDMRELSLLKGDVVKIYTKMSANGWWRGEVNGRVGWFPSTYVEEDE
# GADS = molecular target: T7, GADS (Homo sapiens, UniProt O75791); conditions: for percent of DMSO vehicle control at 10 µM / remaining activity at 10 µM: read-out: percent of DMSO vehicle control; for remaining activity at 10 µM: primary screen
# T7 construct: the DNA-tagged SH2 domain concentrations used in this study were <0.1 nM; made in house; host or cells: HEK293 (transient transfection; unpurified extract)
# T7 sequence (O75791 58-149 limits assumed): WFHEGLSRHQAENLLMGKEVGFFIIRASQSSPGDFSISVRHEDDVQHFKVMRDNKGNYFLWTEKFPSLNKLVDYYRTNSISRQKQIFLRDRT
# LCK = molecular target: T8, LCK (Homo sapiens, UniProt P06239); conditions: read-out: percent of DMSO vehicle control; for remaining activity at 10 µM: primary screen
# T8 construct: the DNA-tagged SH2 domain concentrations used in this study were <0.1 nM; made in house; host or cells: HEK293 (transient transfection, unpurified extract)
# PLCG2(SH2dom.N-term.) = molecular target: T9, PLCG2(SH2dom.N-term.) (Homo sapiens, UniProt P16885); conditions: for remaining activity at 10 µM: read-out: percent of DMSO vehicle control
# T9 construct: SH2dom.N-term. denotes SH2 domain closest to N-terminus of protein; made in house; host or cells: HEK293 (transient transfection, unpurified extract)
# T9 sequence (P16885 532-635 limits assumed): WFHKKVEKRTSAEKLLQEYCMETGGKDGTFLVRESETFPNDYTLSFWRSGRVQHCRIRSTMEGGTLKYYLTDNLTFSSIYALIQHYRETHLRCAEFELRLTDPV
# STAT2 = molecular target: T10, STAT2 (Homo sapiens, UniProt P52630); conditions: for percent of DMSO vehicle control at 10 µM / remaining activity at 10 µM: read-out: percent of DMSO vehicle control; for remaining activity at 10 µM: primary screen
# T10 construct: made in house; host or cells: HEK293 (transient transfection), unpurified extract
# [1] = molecular target: T11, STAT3(N567K)-nonphosphorylated (Homo sapiens, UniProt P40763, N567K); conditions: for percent of DMSO vehicle control at 10 µM / remaining activity at 10 µM: read-out: percent of DMSO vehicle control; for remaining activity at 10 µM: primary screen
# T11 construct: made in house; host or cells: HEK293 (transient transfection), unpurified extract, dephosphorylated by endogenous phosphatases
# T11 sequence (P40763 whole entry N567K): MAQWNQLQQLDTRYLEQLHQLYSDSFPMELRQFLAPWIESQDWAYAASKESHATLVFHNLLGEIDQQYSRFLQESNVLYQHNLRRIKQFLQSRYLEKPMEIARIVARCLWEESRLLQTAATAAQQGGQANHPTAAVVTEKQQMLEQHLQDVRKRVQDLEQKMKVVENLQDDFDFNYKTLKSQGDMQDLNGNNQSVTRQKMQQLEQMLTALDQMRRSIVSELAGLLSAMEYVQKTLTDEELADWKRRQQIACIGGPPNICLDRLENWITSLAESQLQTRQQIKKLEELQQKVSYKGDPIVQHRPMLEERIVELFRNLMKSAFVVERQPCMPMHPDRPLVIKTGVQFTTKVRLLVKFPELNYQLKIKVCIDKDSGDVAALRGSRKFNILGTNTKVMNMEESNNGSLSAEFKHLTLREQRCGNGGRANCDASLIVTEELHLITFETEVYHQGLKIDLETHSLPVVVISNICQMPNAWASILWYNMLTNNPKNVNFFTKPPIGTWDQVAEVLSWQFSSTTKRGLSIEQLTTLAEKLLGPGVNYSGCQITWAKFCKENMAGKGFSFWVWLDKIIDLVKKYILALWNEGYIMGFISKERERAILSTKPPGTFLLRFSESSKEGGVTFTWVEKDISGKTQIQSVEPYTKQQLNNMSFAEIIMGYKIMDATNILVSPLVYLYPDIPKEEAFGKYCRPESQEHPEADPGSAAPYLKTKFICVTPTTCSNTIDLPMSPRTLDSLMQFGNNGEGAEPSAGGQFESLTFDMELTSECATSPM
# T8 sequence (P06239 127-224 limits assumed): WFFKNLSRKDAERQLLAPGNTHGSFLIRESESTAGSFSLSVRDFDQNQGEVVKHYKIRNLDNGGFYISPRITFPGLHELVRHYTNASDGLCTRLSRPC
# T5 sequence (O00459 330-425 limits assumed): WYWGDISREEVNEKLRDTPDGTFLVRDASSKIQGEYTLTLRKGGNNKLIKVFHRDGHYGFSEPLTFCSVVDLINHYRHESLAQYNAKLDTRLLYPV
# T2 sequence (P51451 124-220 limits assumed): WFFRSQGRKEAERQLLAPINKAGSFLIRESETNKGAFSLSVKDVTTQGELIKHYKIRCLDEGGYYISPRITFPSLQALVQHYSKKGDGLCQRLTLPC
# T10 sequence (P52630 whole entry): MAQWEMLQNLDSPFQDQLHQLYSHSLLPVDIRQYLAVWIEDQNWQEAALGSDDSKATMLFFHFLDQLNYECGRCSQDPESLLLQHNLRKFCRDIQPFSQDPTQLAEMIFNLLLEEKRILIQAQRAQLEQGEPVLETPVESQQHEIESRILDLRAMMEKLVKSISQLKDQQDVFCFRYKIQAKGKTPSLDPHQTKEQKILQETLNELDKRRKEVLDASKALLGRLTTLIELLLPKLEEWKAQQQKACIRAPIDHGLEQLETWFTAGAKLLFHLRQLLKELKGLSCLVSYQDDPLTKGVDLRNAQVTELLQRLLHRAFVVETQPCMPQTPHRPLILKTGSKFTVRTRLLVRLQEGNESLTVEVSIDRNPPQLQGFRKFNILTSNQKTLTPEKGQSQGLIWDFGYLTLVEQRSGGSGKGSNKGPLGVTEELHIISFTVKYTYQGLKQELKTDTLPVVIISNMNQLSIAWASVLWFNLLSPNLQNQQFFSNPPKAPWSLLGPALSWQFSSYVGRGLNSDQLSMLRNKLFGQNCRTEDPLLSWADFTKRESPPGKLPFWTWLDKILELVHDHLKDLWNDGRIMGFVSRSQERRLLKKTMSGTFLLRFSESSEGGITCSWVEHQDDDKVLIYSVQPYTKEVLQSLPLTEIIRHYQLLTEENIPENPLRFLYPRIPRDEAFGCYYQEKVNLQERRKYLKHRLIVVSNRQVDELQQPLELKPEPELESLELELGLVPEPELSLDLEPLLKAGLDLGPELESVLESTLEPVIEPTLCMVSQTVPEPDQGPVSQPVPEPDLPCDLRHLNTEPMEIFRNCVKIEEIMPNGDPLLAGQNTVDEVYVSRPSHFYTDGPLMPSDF
SMILES,remaining activity at 10 µM (SLAP2),remaining activity at 10 µM (BLK),remaining activity at 10 µM (PLCG2(SH2dom.C-term.)),remaining activity at 10 µM (PTPN6(SH2dom.N-term.)),remaining activity at 10 µM (PIK3R2(SH2dom.N-term.)),percent of DMSO vehicle control at 10 µM (VAV3),percent of DMSO vehicle control at 10 µM (GADS),percent of DMSO vehicle control at 10 µM (LCK),remaining activity at 10 µM (PLCG2(SH2dom.N-term.)),"remaining activity at 10 µM (SLAP2; primary screen, 10 μM)","remaining activity at 10 µM (BLK; primary screen, 10 μM)","remaining activity at 10 µM (PLCG2(SH2dom.C-term.); primary screen, 10 μM)","remaining activity at 10 µM (PTPN6(SH2dom.N-term.); primary screen, 10 μM)","remaining activity at 10 µM (PIK3R2(SH2dom.N-term.); primary screen, 10 μM)",remaining activity at 10 µM (VAV3),remaining activity at 10 µM (GADS),remaining activity at 10 µM (LCK),"remaining activity at 10 µM (PLCG2(SH2dom.N-term.); primary screen, 10 μM)",remaining activity at 10 µM (STAT2),remaining activity at 10 µM [1],other results
NC(=O)CC[C@H](NC(=O)[C@@H]1CC[C@@H]2CCN(C(=O)CCCCCC#Cc3cccc4c3CN(C3CCC(=O)NC3=O)C4=O)C[C@H](NC(=O)c3cc4cc(C(F)(F)P(=O)(O)O)ccc4[nH]3)C(=O)N21)C(=O)NC(c1ccccc1)c1ccccc1 (stereo partly shown) [SD-36],95.7 ± 9.9%,70.6 ± 5.9%,86.3 ± 12.4%,87.3 ± 4.7%,132%,82.1 ± 3.8%,140.4 ± 0.2%,97.3 ± 3.9%,73.8 ± 3.7%,,,,,,,,,,,,Kd (STAT2; dose-response): 0.45 µM and 0.454 µM; percent of DMSO vehicle control at 10 µM (STAT2): 0.1 ± 1.3%; Kd ([1]; dose-response): 0.03 ± 0.011 µM; percent of DMSO vehicle control at 10 µM [1]: 0.1%
CC(=O)N1CC[C@H]2CC[C@@H](C(=O)N[C@@H](CCC(N)=O)C(=O)NC(c3ccccc3)c3ccccc3)N2C(=O)[C@@H](NC(=O)c2cc3cc(C(F)(F)P(=O)(O)O)ccc3[nH]2)C1 [SI-109],121%,105%,98.7 ± 6.9%,123%,130%,130%,276%,127%,112%,,,,,,,,,,,,Kd (STAT2): 1.3 ± 1.3 µM; percent of DMSO vehicle control at 10 µM (STAT2): 100%; Kd [1]: 0.012 ± 0.0018 µM; percent of DMSO vehicle control at 10 µM [1]: 0.2%
C/C(=C\C(=O)N[C@H](C(=O)N1CCC[C@H]1C(=O)N(c1ccccc1)c1ccc(I)cc1)C(C)(C)C)c1ccc(OP(=O)(O)O)cc1 [STAT6-IN-1],,,,,,,,,,55.8 ± 2.8%,49.1 ± 3.4%,7.5 ± 0.6%,69.7%,48.2 ± 5.7%,40.3 ± 1.3%,9.6 ± 0.1%,48.3 ± 1.3%,20.7 ± 29.3%,35.1 ± 16.6%,0%,"Kd (PLCG2(SH2dom.C-term.); dose-response, read-out: KD): 3.8 ± 0.5 µM; Kd (GADS; dose-response, read-out: KD): 2.4 µM; Kd (PLCG2(SH2dom.N-term.); dose-response, read-out: KD): 0.55 ± 0.014 µM; Kd ([1]; dose-response, read-out: KD): 0.19 ± 0.107 µM"
CC(C)(C)[C@H](NC(=O)/C=C/c1ccc(OP(=O)(O)O)cc1)C(=O)N1CCC[C@H]1C(=O)N(c1ccccc1)c1ccc(I)cc1 [STAT6-IN-3],,,,,,,,,,92.1 ± 16.6%,67.6 ± 11%,75.3 ± 10%,77.4 ± 15.8%,88.4 ± 18.2%,76.8 ± 21.6%,76.5 ± 7.9%,72 ± 20.4%,51.6 ± 17.6%,60.3 ± 12.5%,0.2 ± 0.3%,"Kd (STAT2; dose-response, read-out: KD): 0.51 ± 0.083 µM; Kd ([1]; dose-response, read-out: KD): 0.5 ± 0.2 µM"
O=C(COc1ccc2cc(C(=O)Nc3ccccc3)ccc2c1)NCc1ccc(OP(=O)(O)O)c(OP(=O)(O)O)c1 [Stafib-1],,,,,,,,,,90.4 ± 6.1%,91.8 ± 35.5%,80.4 ± 8.2%,27.8 ± 4.2%,97.2 ± 21.5%,102%,51.9 ± 12.6%,97.4 ± 7.6%,72.6 ± 27.2%,153%,97.5 ± 16.8%,"Kd (PTPN6(SH2dom.N-term.); dose-response, read-out: KD): 13 µM; Kd (STAT2; dose-response, read-out: KD): 9.3 ± 4.3 µM"
